Here are results for 12 compounds from publication PMC12680612, “Metabolic engineering and late-stage functionalization expand the chemical space of the antimalarial premarineosin A” (Communications Chemistry, 2025).

Where two headings read alike, the source gives them in different places.

In data set [1] the test system is Plasmodium falciparum 3D7 (chloroquine-sensitive). Nature of the data set: In vitro antimalarial growth inhibition assay (SYBR green), 3D7. It counts as cell-based. Conditions: for EC50: Plasmodium falciparum. As for the experimental part:
The antimalarial growth inhibition assay was performed as described previously. […] Tested compounds were threefold diluted in triplicate with concentrations ranging from 20 – 0.001 µM/10 – 0.0005 µM. The parasites were incubated with the drug at 37 °C under mixed gas (5% O2, 5% CO2, and 90% N2) conditions for 48 h. DNA was released from the cultured parasite and stained with SYBR green dye. The plate was placed in the dark with gentle agitation for 1 h, and signals were read in a FLUOstar OPTIMA reader (BMG Labtech, Germany). Data from the microplate reader were analyzed as described previously[68] and plotted using Prism 9.0 software (GraphPad Software, Inc., San Diego, CA). Each in vitro experiment was performed in triplicate wells and repeated twice. Response Curves (CRCs) were plotted in GraphPad Prism (GraphPad Software, Inc.) with error bars representing the standard deviation of three replicate wells (Supplementary Fig. 10).

Data set [2] has as its system Plasmodium falciparum Dd2 (chloroquine-resistant). Put plainly: In vitro antimalarial growth inhibition assay (SYBR green), Dd2. It counts as cell-based. Conditions: for EC50: Plasmodium falciparum, read-out: In vitro activity EC50 ± SD P. falciparum Dd2; for Fold more potent than chloroquine, Dd2: Dd2, versus chloroquine. As for the experimental part:
The antimalarial growth inhibition assay was performed as described previously. Briefly, the Plasmodium falciparum Dd2 and 3D7 parasites were diluted to 0.75% parasitemia with 2% hematocrit, and 50 μL diluted parasites were added to each well in a 96-well plate containing 50 μL of properly diluted drugs. Tested compounds were threefold diluted in triplicate with concentrations ranging from 20 – 0.001 µM/10 – 0.0005 µM. The parasites were incubated with the drug at 37 °C under mixed gas (5% O2, 5% CO2, and 90% N2) conditions for 48 h. DNA was released from the cultured parasite and stained with SYBR green dye. The plate was placed in the dark with gentle agitation for 1 h, and signals were read in a FLUOstar OPTIMA reader (BMG Labtech, Germany). Data from the microplate reader were analyzed as described previously[68] and plotted using Prism 9.0 software (GraphPad Software, Inc., San Diego, CA). Each in vitro experiment was performed in triplicate wells and repeated twice. Response Curves (CRCs) were plotted in GraphPad Prism (GraphPad Software, Inc.) with error bars representing the standard deviation of three replicate wells (Supplementary Fig. 10).

Data set [3] is described as follows: CellTiter-Glo cell viability assay (cytotoxicity), MOLT4. In kind it is cell-based. Conditions: human, MOLT4, 72 h treatment, read-out: In vitro cytotoxicity EC50 ± SD MOLT4. How it is done: (§1) Cells were obtained from the following sources: HEK293 (ATCC, cat # CRL-1573), MOLT-4 (ATCC, cat # CRL-1582). Cell lines were routinely tested for Mycoplasma contamination with the MycoAlert PLUS Mycoplasma Detection Kit (Lonza Bioscience, cat # LT07) according to manufacturer protocol. Cell number and cell viability were measured using the Countess Automated Cell Counter (Invitrogen) using Trypan blue stain (Invitrogen, cat # T10282). Human embryonic kidney HEK293 cells were maintained in DMEM with high glucose and GlutaMAX (Gibco, cat # 10566016) supplemented with 10% HyClone Characterized Fetal Bovine Serum (Cytiva, cat # SH30071.03), and 100 µ mL^−1 Penicillin-Streptomycin (Gibco, cat # 15140122). Human T lymphoblast MOLT-4 cells were maintained in RPMI 1640 Medium (Gibco, cat # 11875093) supplemented with 10% HyClone Characterized Fetal Bovine Serum (Cytiva, cat # SH30071.03), 100 µ mL^−1 Penicillin-Streptomycin (Gibco, cat # 15140122), and 10 mM HEPES (Gibco, 15630080). Cells were cultured in incubators maintained at 37 °C with 5% CO2 and 95% relative humidity.
(§2) The CTG assay (Promega, cat # G7572) was used to quantify cellular ATP according to manufacturer protocols. The Multidrop Combi liquid dispenser (ThermoFisher) was used to dispense 4 µL of cells into white 1536-well microplates (Corning, cat # 7464) at a density of 1500 cells/well. Plated cells were incubated overnight. (−)-Premarineosin A (3) and derivatives were transferred into respective wells of each plate at 25 nL/well with the mosquito (SPT Labtech) in 16-pt, 1:3 titrations for a final concentration of 125 µM–8.71 pM for compounds with a high concentration of 20 mM, or 62.5 µM–4.36 pM for compounds with a high concentration of 10 mM. Controls were transferred into respective wells of each plate at 25 nL/well with the mosquito with a 16-pt, 1:2 titration of Digitonin for a final concentration of 125 µM–3.81 nM. The final concentration of DMSO was 0.58%. Cells were incubated for either 24, 48, and 72 h, after which point 3 µL/well of CTG was transferred to each plate with the BioRaptr 2.0 FRD (LetsGoRobotics). Plates were incubated for 10 min in the dark at ambient temperature for 10 min. Luminescence was measured using a ViewLux 1430Ultra HTS (PerkinElmer) with the following optical settings: exposure = 1 s, gain = high, speed = slow, binning = 2X. Dimethyl sulfoxide (“DMSO”; AMRESCO, cat # RGE-3070) was used as a vehicle control. Digitonin (Sigma-Aldrich, cat # D141) was prepared as a 20 mM stock solution in DMSO and stored at −30 °C for use as a cytotoxicity control. (−)-Premarineosin A (3) and derivatives were prepared at either 10 mM or 20 mM stock solutions in DMSO. Data were normalized to 125 µM Digitonin as −100% inhibition in a row-wise manner across the plate. Normalization was performed in Excel (Microsoft) and Concentration Response Curves (CRCs) were plotted in GraphPad Prism (GraphPad Software, Inc.) with error bars representing the standard deviation of four replicate wells (Supplementary Fig. 9).
A general note: ATP-based viability assays read luminescence as a measure of living cells.

Data set [4] is described as follows: CellTiter-Glo cell viability assay (cytotoxicity), HEK293. The note with it: human, HEK293, 72 h treatment, read-out: In vitro cytotoxicity EC50 ± SD HEK293. It counts as cell-based. As for the experimental part: as §1, §2
For the next data set, the system named is Plasmodium. More on the design: method as in PMID 24575817, PMID 19007176. The note with it: cited from earlier work.
Setting [5] is: 3D7 chloroquine-sensitive, 48 h treatment, read-out: In vitro activity EC50 ± SD P. falciparum 3D7.
Where [6] appears, read: Dd2 chloroquine-resistant, 48 h treatment.
[7] abbreviates: 3D7, 48 h, read-out: In vitro activity EC50 ± SD P. falciparum 3D7.
Setting [8] is: MOLT-4 T-cell leukemia (T lymphoblast) cells.
The mark [9] stands for this setting: 3D7 chloroquine-sensitive, 48 h treatment.

As to `C[C@H]1[C@H](OC(=O)CCC(=O)O)O[C@@H]2O[C@@]3(C)CC[C@H]4[C@H](C)CC[C@@H]1[C@@]24OO3` [Artesunate, reference compound], the results for the EC50 in data set [1] (setting [5]) and in data set [2] (setting [6]) were 0.024 ± 0.006 µM and 0.008 ± 0.002 µM, respectively.

Turning to `CCN(CC)CCCC(C)Nc1ccnc2cc(Cl)ccc12` (stereo not drawn) [Chloroquine, reference compound], the EC50 in data set [1] (setting [7]) was determined as 0.041 ± 0.003 µM; in data set [2] (DD2, 48 h), 0.382 ± 0.022 µM.

On to `COC1=CC(c2ccc[nH]2)=N[C@@]12O[C@H](C)C[C@H]1CCCCCCCc3ccc([nH]3)[C@@H]12` [compound 3, (−)-premarineosin A], for which the EC50 at 72 h in data set [3] amounted to 1.06 ± 0.336 µM; in data set [4], 1.47 ± 0.427 µM. In data set [1] (3D7, versus artesunate), the “Fold more potent than artesunate, 3D7” value was 6 fold. In data set [1] (3D7, versus chloroquine), the “Fold more potent than chloroquine, 3D7” value was “over 10 fold”. Besides, the results for the EC50 in data set [1] (setting [5]) and in data set [2] (setting [6]) were 0.004 ± 0.0001 µM and 0.001 ± 0.0007 µM, respectively. Besides, the “Antimalarial activity in vitro” value with Plasmodium is recorded as “single-digit nanomolar”. Further, in data set [2] (Dd2, versus artesunate), the “Fold more potent than artesunate, Dd2” value was determined as 8 fold. The “Fold more potent than chloroquine, Dd2” value in data set [2] is on record as over 350 fold.

As to `COC1=CC(c2ccc[nH]2)=N[C@@]12O[C@H](C)C[C@H]1CCCCCCCc3[nH]c(cc3C(C)(C)c3cc4[nH]c3CCCCCCC[C@@H]3C[C@@H](C)O[C@@]5(N=C(c6ccc[nH]6)C=C5OC)[C@@H]43)[C@@H]12` [compound 4, gem-dimethyl-bridged premarineosin A], the values for the EC50 at 72 h in data set [3] and in data set [4] were 2.26 ± 0.777 µM and 8.29 ± 1.66 µM, respectively. The EC50 was 1.89 ± 0.243 µM in data set [1] (setting [7]) and 1.24 ± 0.168 µM in data set [2] (DD2, 48 h).

In the case of `COC1=CC(c2ccc[nH]2)=N[C@@]12O[C@H](C)C[C@H]1CCCCCCCc3[nH]c(cc3Cc3cc4[nH]c3CCCCCCC[C@@H]3C[C@@H](C)O[C@@]5(N=C(c6ccc[nH]6)C=C5OC)[C@@H]43)[C@@H]12` [compound 5, Methylene-bridged premarineosin A], the values for the EC50 at 72 h in data set [3] and in data set [4] were 1.16 ± 0.094 µM and 8.31 ± 1.46 µM, respectively. Moreover, the figures for the EC50 in data set [1] (setting [5]) and in data set [2] (setting [6]) were 1.39 ± 0.265 µM and 0.548 ± 0.076 µM, respectively.

For the compound `COC1=CC(c2ccc[nH]2)=N[C@@]12O[C@H](C)C[C@H]1CCCCCCCc3[nH]c(cc3C(C)(c3cc4[nH]c3CCCCCCC[C@@H]3C[C@@H](C)O[C@@]5(N=C(c6ccc[nH]6)C=C5OC)[C@@H]43)C(F)(F)F)[C@@H]12` [compound 6, Trifluoromethyl-bridged premarineosin A], the values for the EC50 at 72 h in data set [3] (setting [8]) and in data set [4] (HEK293 embryonic kidney cells) were 6.51 ± 2.74 µM and 11 ± 2.15 µM, respectively. In addition, the EC50 in data set [1] (setting [5]) was determined as 5.07 ± 1 µM; in data set [2] (setting [6]) it was 2.32 ± 0.448 µM.

Consider `COC1=CC(c2ccc[nH]2)=N[C@@]12O[C@H](C)C[C@H]1CCCCCCCc3[nH]c(cc3C(C)(O)C(F)(F)F)[C@@H]12` (stereo partly drawn) [compound 7, 12-trifluoropropanol premarineosin A], for which the EC50 at 72 h in data set [3] (setting [8]) is 1.49 ± 0.388 µM; in data set [4] (HEK293 embryonic kidney cells), 4.21 ± 0.481 µM. The “In vitro activity EC50 ± SD P. falciparum 3D7” value in data set [1] (setting [9]) is “sub-micromolar”. The EC50 in data set [1] (setting [5]) was 0.203 ± 0.01 µM; in data set [2] (setting [6]), 0.087 ± 0.015 µM. The “In vitro activity EC50 ± SD P. falciparum Dd2” value in data set [2] (setting [6]) is on record as “sub-micromolar”.

`COC1=CC(c2ccc[nH]2)=N[C@@]12O[C@H](C)C[C@H]1CCCCCCCc3[nH]c(cc3C=O)[C@@H]12` [compound 8, 12-formyl premarineosin A]: the results for the EC50 at 72 h in data set [3] and in data set [4] were 6.63 ± 0.836 µM and 7.79 ± 1.62 µM, respectively. The “In vitro activity EC50 ± SD P. falciparum 3D7” value in data set [1] (setting [9]) is given as “sub-micromolar”. The EC50 in data set [1] (setting [5]) amounted to 0.165 ± 0.055 µM; in data set [2] (setting [6]), 0.222 ± 0.053 µM. Besides, in data set [2] (setting [6]), the “In vitro activity EC50 ± SD P. falciparum Dd2” value is listed as “sub-micromolar”.

For `COC1=CC(c2ccc[nH]2)=N[C@@]12O[C@H](C)C[C@H]1CCCCCCCc3[nH]c(cc3C(C)=O)[C@@H]12` [compound 9, 12-acetyl premarineosin A], the figures for the EC50 at 72 h in data set [3] (setting [8]) and in data set [4] (HEK293 embryonic kidney cells) were 3.67 ± 1.01 µM and 6.59 ± 3.02 µM, respectively. Moreover, the “In vitro activity EC50 ± SD P. falciparum 3D7” value in data set [1] (setting [9]) is on record as “sub-micromolar”. The EC50 worked out at 0.178 ± 0.025 µM in data set [1] (setting [5]) and 0.18 ± 0.014 µM in data set [2] (setting [6]). In data set [2] (setting [6]), the “In vitro activity EC50 ± SD P. falciparum Dd2” value is reported as “sub-micromolar”.

Turning to `COC1=CC(c2ccc[nH]2)=N[C@@]12O[C@H](C)C[C@H]1CCCCCCCc3[nH]c(cc3CO)[C@@H]12` [compound 10, 12-hydroxymethyl-premarineosin A], the EC50 at 72 h in data set [3] turned out to be 19.7 ± 1.22 µM; in data set [4], 18.4 ± 6.7 µM. Also, the values for the EC50 in data set [1] (setting [5]) and in data set [2] (setting [6]) were 1.23 ± 0.53 µM and 0.704 ± 0.304 µM, respectively.

Take `COC1=CC(c2ccc(Br)[nH]2)=N[C@@]12O[C@H](C)C[C@H]1CCCCCCCc3ccc([nH]3)[C@@H]12` [compound 11, 1-bromo premarineosin A]: the EC50 at 72 h in data set [3] was 1.33 ± 0.691 µM; in data set [4], 19.2 ± 1.73 µM. Also, the EC50 in data set [1] (setting [7]) is 0.473 ± 0.113 µM; in data set [2] (DD2, 48 h), 0.259 ± 0.024 µM.

`COC1=CC(c2ccc[nH]2)=N[C@@]12O[C@H](C)C[C@H]1CCCCCCCc3[nH]c(cc3Br)[C@@H]12` [compound 12, 12-bromo premarineosin A]: the EC50 at 72 h in data set [3] was 0.48 ± 0.084 µM; in data set [4], 1.63 ± 0.184 µM. Further, the EC50 was 0.002 µM in data set [1] (setting [7]); under 0.005 µM in data set [1] (3D7, read-out: EC50 against P. falciparum); 0.022 ± 0.011 µM in data set [2] (DD2, 48 h). Also, in data set [2], the “Fold more potent than chloroquine, Dd2” value is given as 17 fold.

What is called EC50 is the concentration that produces a half-maximal response.
